Reference: publication PMC12748989 (Nature Communications, 2025)

Assays:
PBMC = conditions: 12.5 µM

SMILES	Average (percentage cell inhibition), Dmastoparan MDA-MB231 12.5uM (MDA-MB-231 cells) [%]	Average (percentage cell inhibition), Mastoparan PBMC (PBMC) [%]	Average 6.5uM (MDA-MB-231 cells) [%]
CC[C@H](C)[C@H](N)C(=O)N[C@@H](CC(N)=O)C(=O)N[C@@H](CC(C)C)C(=O)N[C@@H](CCCCN)C(=O)N[C@@H](C)C(=O)N[C@@H](CC(C)C)C(=O)N[C@@H](C)C(=O)N[C@@H](C)C(=O)N[C@@H](CC(C)C)C(=O)N[C@@H](C)C(=O)N[C@@H](CCCCN)C(=O)N[C@@H](CCCCN)C(=O)N[C@H](C(=O)N[C@@H](CCCNC(=N)N)C(N)=O)[C@@H](C)CC [R14]	9.085	-1.726	
CC[C@H](C)[C@H](N)C(=O)N[C@@H](CC(N)=O)C(=O)N[C@@H](CC(C)C)C(=O)N[C@@H](CCCCN)C(=O)N[C@@H](Cc1c[nH]c2ccccc12)C(=O)N[C@@H](CC(C)C)C(=O)N[C@@H](C)C(=O)N[C@@H](C)C(=O)N[C@@H](CC(C)C)C(=O)N[C@@H](C)C(=O)N[C@@H](CCCCN)C(=O)N[C@@H](CCCCN)C(=O)N[C@H](C(=O)N[C@@H](CC(C)C)C(N)=O)[C@@H](C)CC [W5]	97.3063	88.7179	75.0546
CC[C@H](C)[C@H](N)C(=O)N[C@@H](CC(N)=O)C(=O)N[C@@H](CC(C)C)C(=O)N[C@@H](CCCCN)C(=O)N[C@@H](C)C(=O)N[C@@H](CC(C)C)C(=O)N[C@@H](C)C(=O)N[C@@H](C)C(=O)N[C@@H](Cc1c[nH]c2ccccc12)C(=O)N[C@@H](C)C(=O)N[C@@H](CCCCN)C(=O)N[C@@H](CCCCN)C(=O)N[C@H](C(=O)N[C@@H](CC(C)C)C(N)=O)[C@@H](C)CC [W9]	26.5648	6.531	
CC[C@H](C)[C@H](N)C(=O)N[C@@H](CC(N)=O)C(=O)N[C@@H](CC(C)C)C(=O)N[C@@H](CCCCN)C(=O)N[C@@H](C)C(=O)N[C@@H](CC(C)C)C(=O)N[C@@H](C)C(=O)N[C@@H](C)C(=O)N[C@@H](CC(C)C)C(=O)N[C@@H](Cc1ccc(O)cc1)C(=O)N[C@@H](CCCCN)C(=O)N[C@@H](CCCCN)C(=O)N[C@H](C(=O)N[C@@H](CC(C)C)C(N)=O)[C@@H](C)CC [Y10]	27.1013	11.2083	
CC[C@H](C)[C@H](N)C(=O)N[C@@H](CC(N)=O)C(=O)N[C@@H](CC(C)C)C(=O)N[C@@H](CCCCN)C(=O)N[C@@H](C)C(=O)N[C@@H](CC(C)C)C(=O)N[C@@H](C)C(=O)N[C@@H](C)C(=O)N[C@@H](CC(C)C)C(=O)N[C@@H](C)C(=O)N[C@@H](CCCCN)C(=O)N[C@@H](CCCCN)C(=O)N[C@@H](CCCCN)C(=O)N[C@@H](CC(C)C)C(N)=O [K13]	29.9957	5	
CC[C@H](C)[C@H](N)C(=O)N[C@@H](CC(N)=O)C(=O)N[C@@H](CC(C)C)C(=O)N[C@@H](CCCCN)C(=O)N[C@@H](C)C(=O)N[C@@H](CC(C)C)C(=O)N[C@@H](C)C(=O)N[C@@H](C)C(=O)N[C@@H](CCCCN)C(=O)N[C@@H](C)C(=O)N[C@@H](CCCCN)C(=O)N[C@@H](CCCCN)C(=O)N[C@H](C(=O)N[C@@H](CC(C)C)C(N)=O)[C@@H](C)CC [K9]	18.9586	-2.726	
CC[C@H](C)[C@H](NC(=O)[C@H](CCCCN)NC(=O)[C@H](CCCCN)NC(=O)[C@H](C)NC(=O)[C@H](CC(C)C)NC(=O)[C@H](C)NC(=O)[C@H](C)NC(=O)[C@H](CC(C)C)NC(=O)[C@H](C)NC(=O)[C@H](CCCCN)NC(=O)[C@H](CC(C)C)NC(=O)[C@H](CC(N)=O)NC(=O)[C@@H]1CCCN1)C(=O)N[C@@H](CC(C)C)C(N)=O [P1]	43.0723	-0.6303	
CC[C@H](C)[C@H](N)C(=O)N[C@@H](CC(N)=O)C(=O)N[C@@H](CC(C)C)C(=O)N[C@@H](CCCCN)C(=O)N[C@@H](C)C(=O)N[C@@H](CC(C)C)C(=O)N[C@@H](C)C(=O)N[C@@H](C)C(=O)N[C@@H](CC(C)C)C(=O)N[C@@H](C)C(=O)N[C@@H](CCCCN)C(=O)N[C@@H](CCCCN)C(=O)N[C@@H](Cc1c[nH]c2ccccc12)C(=O)N[C@@H](CC(C)C)C(N)=O [W13]	70.7641	24.9289	
CC[C@H](C)[C@H](N)C(=O)N[C@@H](CC(N)=O)C(=O)N[C@@H](CC(C)C)C(=O)N[C@@H](CCCCN)C(=O)N[C@@H](C)C(=O)N[C@@H](CC(C)C)C(=O)N[C@@H](C)C(=O)N[C@@H](C)C(=O)N[C@@H](CC(C)C)C(=O)N[C@@H](C)C(=O)N[C@@H](CCCCN)C(=O)N[C@@H](C)C(=O)N[C@H](C(=O)N[C@@H](CC(C)C)C(N)=O)[C@@H](C)CC [A12]	42.9356	17.0691	
CC[C@H](C)[C@H](N)C(=O)N[C@@H](CC(N)=O)C(=O)N[C@@H](CC(C)C)C(=O)N[C@@H](CCCCN)C(=O)N[C@H](C(=O)N[C@@H](CC(C)C)C(=O)N[C@@H](C)C(=O)N[C@@H](C)C(=O)N[C@@H](CC(C)C)C(=O)N[C@@H](C)C(=O)N[C@@H](CCCCN)C(=O)N[C@@H](CCCCN)C(=O)N[C@H](C(=O)N[C@@H](CC(C)C)C(N)=O)[C@@H](C)CC)[C@@H](C)CC [I5]	71.3869	29.3206	
CC[C@H](C)[C@H](N)C(=O)N[C@@H](CC(N)=O)C(=O)N[C@@H](CC(C)C)C(=O)N[C@@H](CCCCN)C(=O)N[C@@H](C)C(=O)N[C@@H](CC(C)C)C(=O)N[C@@H](C)C(=O)N[C@@H](C)C(=O)N[C@@H](CCCNC(=N)N)C(=O)N[C@@H](C)C(=O)N[C@@H](CCCCN)C(=O)N[C@@H](CCCCN)C(=O)N[C@H](C(=O)N[C@@H](CC(C)C)C(N)=O)[C@@H](C)CC [R9]	12.7524	5.887	
CC[C@H](C)[C@H](N)C(=O)N[C@@H](CC(N)=O)C(=O)N[C@@H](CC(C)C)C(=O)N[C@@H](CCCCN)C(=O)N[C@@H](C)C(=O)N[C@@H](CC(C)C)C(=O)N[C@@H](Cc1c[nH]cn1)C(=O)N[C@@H](C)C(=O)N[C@@H](CC(C)C)C(=O)N[C@@H](C)C(=O)N[C@@H](CCCCN)C(=O)N[C@@H](CCCCN)C(=O)N[C@H](C(=O)N[C@@H](CC(C)C)C(N)=O)[C@@H](C)CC [H7]	37.3401	4.935	
CC[C@H](C)[C@H](N)C(=O)N[C@@H](CC(N)=O)C(=O)N[C@@H](Cc1c[nH]c2ccccc12)C(=O)N[C@@H](CCCCN)C(=O)N[C@@H](C)C(=O)N[C@@H](CC(C)C)C(=O)N[C@@H](C)C(=O)N[C@@H](C)C(=O)N[C@@H](CC(C)C)C(=O)N[C@@H](C)C(=O)N[C@@H](CCCCN)C(=O)N[C@@H](CCCCN)C(=O)N[C@H](C(=O)N[C@@H](CC(C)C)C(N)=O)[C@@H](C)CC [W3]	65.1242	22.6054	
CC[C@H](C)[C@H](N)C(=O)N[C@@H](CC(C)C)C(=O)N[C@@H](CC(C)C)C(=O)N[C@@H](CCCCN)C(=O)N[C@@H](C)C(=O)N[C@@H](CC(C)C)C(=O)N[C@@H](C)C(=O)N[C@@H](C)C(=O)N[C@@H](CC(C)C)C(=O)N[C@@H](C)C(=O)N[C@@H](CCCCN)C(=O)N[C@@H](CCCCN)C(=O)N[C@H](C(=O)N[C@@H](CC(C)C)C(N)=O)[C@@H](C)CC [L2]	95.7612	76.9101	
CC[C@H](C)[C@H](N)C(=O)N[C@@H](CC(N)=O)C(=O)N[C@@H](C)C(=O)N[C@@H](CCCCN)C(=O)N[C@@H](C)C(=O)N[C@@H](CC(C)C)C(=O)N[C@@H](C)C(=O)N[C@@H](C)C(=O)N[C@@H](CC(C)C)C(=O)N[C@@H](C)C(=O)N[C@@H](CCCCN)C(=O)N[C@@H](CCCCN)C(=O)N[C@H](C(=O)N[C@@H](CC(C)C)C(N)=O)[C@@H](C)CC [A3]	17.9778	-7.622	
CC[C@H](C)[C@H](N)C(=O)N[C@@H](CC(N)=O)C(=O)N[C@@H](CO)C(=O)N[C@@H](CCCCN)C(=O)N[C@@H](C)C(=O)N[C@@H](CC(C)C)C(=O)N[C@@H](C)C(=O)N[C@@H](C)C(=O)N[C@@H](CC(C)C)C(=O)N[C@@H](C)C(=O)N[C@@H](CCCCN)C(=O)N[C@@H](CCCCN)C(=O)N[C@H](C(=O)N[C@@H](CC(C)C)C(N)=O)[C@@H](C)CC [S3]	12.1099	5.178	
CC[C@H](C)[C@H](N)C(=O)N[C@@H](CC(N)=O)C(=O)N[C@@H](CC(C)C)C(=O)N[C@@H](CCC(=O)O)C(=O)N[C@@H](C)C(=O)N[C@@H](CC(C)C)C(=O)N[C@@H](C)C(=O)N[C@@H](C)C(=O)N[C@@H](CC(C)C)C(=O)N[C@@H](C)C(=O)N[C@@H](CCCCN)C(=O)N[C@@H](CCCCN)C(=O)N[C@H](C(=O)N[C@@H](CC(C)C)C(N)=O)[C@@H](C)CC [E4]	27.9326	5.1636	
CC[C@H](C)[C@H](N)C(=O)N[C@@H](CC(N)=O)C(=O)N[C@@H](Cc1ccc(O)cc1)C(=O)N[C@@H](CCCCN)C(=O)N[C@@H](C)C(=O)N[C@@H](CC(C)C)C(=O)N[C@@H](C)C(=O)N[C@@H](C)C(=O)N[C@@H](CC(C)C)C(=O)N[C@@H](C)C(=O)N[C@@H](CCCCN)C(=O)N[C@@H](CCCCN)C(=O)N[C@H](C(=O)N[C@@H](CC(C)C)C(N)=O)[C@@H](C)CC [Y3]	39.9685	5.097	
CC[C@H](C)[C@H](N)C(=O)N[C@@H](CC(N)=O)C(=O)N[C@@H](CC(C)C)C(=O)N[C@@H](CCCCN)C(=O)N[C@@H](C)C(=O)N[C@@H](CC(C)C)C(=O)N[C@@H](C)C(=O)N[C@@H](C)C(=O)N[C@@H](CC(C)C)C(=O)N[C@@H](C)C(=O)N[C@@H](CCCCN)C(=O)N[C@@H](CCCCN)C(=O)N[C@H](C(=O)N[C@@H](CO)C(N)=O)[C@@H](C)CC [S14]	38.8299	-3.76	
